Data from ChEMBL document CHEMBL1201862, “PubChem BioAssay data set” (2004).
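48-hour exposure; five concentrations; linearly interpolated endpoints. The concentration for 50% growth inhibition is given as GI50.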 Activity calls are given as the source filed them. No stated cut-off is given here; in the data, active = GI50 up to about 1.1 µM and inactive = higher.

How the values were obtained:
Experiment in all cases: growth of human tumour cells (NCI), 48 h
DMS-273 = system: DMS-273
HOP-18 = system: HOP-18
SF-295 = system: SF-295
CAKI-1 = system: CAKI-1
OVCAR-4 = system: OVCAR-4
SNB-19 = system: SNB-19
A498 = system: A498
UACC-257 = system: UACC-257
NCI-H522 = system: NCI-H522
ACHN = system: ACHN
SR = system: SR
NCI-H460 = system: NCI-H460
HL-60 = system: HL-60
TK-10 = system: TK-10
OVCAR-3 = system: OVCAR-3
M14 = system: M14
HCT-116 = system: HCT-116
MOLT-4 = system: MOLT-4
SF-268 = system: SF-268
EKVX = system: EKVX
OVCAR-5 = system: OVCAR-5
SNB-78 = system: SNB-78
HT-29 = system: HT-29
HCC 2998 = system: HCC 2998
SF-539 = system: SF-539
Malme-3M = system: Malme-3M
RPMI-8226 = system: RPMI-8226
U-251 = system: U-251
LOX IMVI = system: LOX IMVI
UO-31 = system: UO-31
K562 = system: K562
NCI-H23 = system: NCI-H23
KM12 = system: KM12
DLD-1 = system: DLD-1
RXF 393 = system: RXF 393
SN12C = system: SN12C
DMS-114 = system: DMS-114
KM-20L2 = system: KM-20L2
M19-MEL = system: M19-MEL
786-0 = system: 786-0
SK-OV-3 = system: SK-OV-3
HOP-62 = system: HOP-62
SK-MEL-28 = system: SK-MEL-28
LXFL 529 = system: LXFL 529
XF498 = system: XF498
OVCAR-8 = system: OVCAR-8
SK-MEL-5 = system: SK-MEL-5
A549 = system: A549
COLO 205 = system: COLO 205
SNB-75 = system: SNB-75
UACC-62 = system: UACC-62
NCI-H226 = system: NCI-H226
CCRF-CEM = system: CCRF-CEM
SW-620 = system: SW-620
HCT-15 = system: HCT-15
RXF 631 = system: RXF 631
IGROV-1 = system: IGROV-1
HOP-92 = system: HOP-92

With `Cc1cc(C)nc(NS(=O)(=O)c2ccc(Nc3c4ccccc4nc4c(C(=O)Nc5ccc(S(=O)(=O)N=C(N)N)cc5)ccc(Cl)c34)cc2)n1` the GI50 (DMS-273) was 32.1 µM (inactive), the GI50 (HOP-18) was 18.7 µM (inactive) and the GI50 (SF-295) was 47.2 µM (inactive). For the same compound, the GI50 (CAKI-1) was 36.1 µM (inactive), the GI50 (OVCAR-4) was 23.9 µM (inactive) and the GI50 (SNB-19) was 20.4 µM (inactive). For the same compound, the GI50 (A498) was 34.6 µM (inactive), the GI50 (UACC-257) was 64.3 µM (inactive) and the GI50 (NCI-H522) was 15.8 µM (inactive). For the same compound, the GI50 (ACHN) was 43.5 µM (inactive), the GI50 (SR) was 25.3 µM (inactive) and the GI50 (NCI-H460) was 53.1 µM (inactive). For the same compound, the GI50 (HL-60) was 24.1 µM (inactive), the GI50 (TK-10) was 34.6 µM (inactive) and the GI50 (OVCAR-3) was 17.5 µM (inactive). For the same compound, the GI50 (M14) was 88.5 µM (inactive), the GI50 (HCT-116) was 21.9 µM (inactive) and the GI50 (MOLT-4) was 23.5 µM (inactive). The GI50 (SF-268) was 27.9 µM (inactive), the GI50 (EKVX) was 56.4 µM (inactive) and the GI50 (OVCAR-5) was 41.2 µM (inactive). For the same compound, the GI50 (SNB-78) was 33.7 µM (inactive), the GI50 (HT-29) was 36.3 µM (inactive) and the GI50 (HCC 2998) was 20 µM (inactive). The GI50 (SF-539) was 19.3 µM (inactive), the GI50 (Malme-3M) was 33.6 µM (inactive) and the GI50 (RPMI-8226) was 28.2 µM (inactive). For the same compound, the GI50 (U-251) was 18.2 µM (inactive), the GI50 (LOX IMVI) was 19.4 µM (inactive) and the GI50 (UO-31) was 25.4 µM (inactive). For the same compound, the GI50 (K562) was 24.2 µM (inactive), the GI50 (NCI-H23) was 19.7 µM (inactive) and the GI50 (KM12) was 42.7 µM (inactive). The GI50 (DLD-1) was 33.1 µM (inactive), the GI50 (RXF 393) was 18.2 µM (inactive) and the GI50 (SN12C) was 29.8 µM (inactive). For the same compound, the GI50 (DMS-114) was 21.7 µM (inactive), the GI50 (KM-20L2) was 35.6 µM (inactive) and the GI50 (M19-MEL) was 26 µM (inactive). For the same compound, the GI50 (786-0) was 38.9 µM (inactive), the GI50 (SK-OV-3) was 22.9 µM (inactive) and the GI50 (HOP-62) was 23.2 µM (inactive). The GI50 (SK-MEL-28) was > 10 µM (inactive), the GI50 (LXFL 529) was 25.8 µM (inactive) and the GI50 (XF498) was 24 µM (inactive). For the same compound, the GI50 (OVCAR-8) was 17.5 µM (inactive), the GI50 (SK-MEL-5) was 98.6 µM (inactive) and the GI50 (A549) was > 100 µM (inactive). For the same compound, the GI50 (COLO 205) was 55 µM (inactive), the GI50 (SNB-75) was 35.7 µM (inactive) and the GI50 (UACC-62) was 19.3 µM (inactive). For the same compound, the GI50 (NCI-H226) was 21.9 µM (inactive).
In the case of `O=C1C=CC(=CC=C2C=CN(CCCCCCCCCCC(=O)NCCCCCCCCCCCC(=O)O)C=C2)C=C1`, the GI50 (DMS-273) is reported as > 100 µM (inactive), the GI50 (CCRF-CEM) is reported as > 100 µM (inactive) and the GI50 (SF-295) is reported as > 100 µM (inactive). For the same compound, the GI50 (CAKI-1) was > 100 µM (inactive), the GI50 (OVCAR-4) was > 100 µM (inactive) and the GI50 (SNB-19) was > 100 µM (inactive). For the same compound, the GI50 (A498) was > 100 µM (inactive), the GI50 (UACC-257) was > 100 µM (inactive) and the GI50 (NCI-H522) was > 100 µM (inactive). The GI50 (SW-620) was > 100 µM (inactive), the GI50 (ACHN) was > 100 µM (inactive) and the GI50 (SR) was > 100 µM (inactive). The GI50 (NCI-H460) was > 100 µM (inactive), the GI50 (HCT-15) was greater than 100 µM and the GI50 (RXF 631) was > 100 µM (inactive). The GI50 (HL-60) was > 100 µM (inactive), the GI50 (TK-10) was > 100 µM (inactive) and the GI50 (OVCAR-3) was > 100 µM (inactive). The GI50 (M14) was > 100 µM (inactive), the GI50 (HCT-116) was > 100 µM (inactive) and the GI50 (MOLT-4) was > 100 µM (inactive). The GI50 (SF-268) was > 100 µM (inactive), the GI50 (EKVX) was > 100 µM (inactive) and the GI50 (OVCAR-5) was > 100 µM (inactive). The GI50 (SNB-78) was > 100 µM (inactive), the GI50 (IGROV-1) was > 100 µM (inactive) and the GI50 (HT-29) was > 100 µM (inactive). For the same compound, the GI50 (HCC 2998) was > 100 µM (inactive), the GI50 (SF-539) was > 100 µM (inactive) and the GI50 (Malme-3M) was > 100 µM (inactive). The GI50 (RPMI-8226) was > 100 µM (inactive), the GI50 (U-251) was > 100 µM (inactive) and the GI50 (LOX IMVI) was > 100 µM (inactive). The GI50 (UO-31) was > 100 µM (inactive), the GI50 (K562) was > 100 µM (inactive) and the GI50 (NCI-H23) was > 100 µM (inactive). The GI50 (KM12) was > 100 µM (inactive), the GI50 (DLD-1) was > 100 µM (inactive) and the GI50 (RXF 393) was > 100 µM (inactive). The GI50 (SN12C) was > 100 µM (inactive), the GI50 (DMS-114) was > 100 µM (inactive) and the GI50 (KM-20L2) was > 100 µM (inactive). For the same compound, the GI50 (M19-MEL) was > 100 µM (inactive), the GI50 (786-0) was > 100 µM (inactive) and the GI50 (SK-OV-3) was > 100 µM (inactive). For the same compound, the GI50 (HOP-62) was > 100 µM (inactive), the GI50 (SK-MEL-28) was > 100 µM (inactive) and the GI50 (HOP-92) was > 100 µM (inactive). The GI50 (LXFL 529) was > 100 µM (inactive), the GI50 (XF498) was > 100 µM (inactive) and the GI50 (OVCAR-8) was > 100 µM (inactive). For the same compound, the GI50 (SK-MEL-5) was > 100 µM (inactive), the GI50 (A549) was > 100 µM (inactive) and the GI50 (COLO 205) was > 100 µM (inactive). For the same compound, the GI50 (SNB-75) was > 100 µM (inactive), the GI50 (UACC-62) was > 100 µM (inactive) and the GI50 (NCI-H226) was > 100 µM (inactive).
